From paper PMC3968228 (Cancer chemotherapy and pharmacology, 2014)
Values belong to the molecule of their own block, whether it stands above or below them.

Experiments:
[1] = for elimination pattern of docetaxel concentration-time profile: docetaxel 20 mg/kg i.v., male FVB mice
[2] = three new patients on ritonavir-based cART, docetaxel 70 to 100 mg/m^2; cited from earlier work
[3] = with ritonavir; cited from earlier work
[4] = male, FVB, mouse, plasma, iv, 20 mg/kg

Compound: O=C1Nc2ccc(Cl)cc2[C@@](C#CC2CC2)(C(F)(F)F)O1 [efavirenz, Efavirenz]
- effect on docetaxel exposure (AUC) ([1]; CYP3A4 inducers p.o. x4d before docetaxel 20 mg/kg i.v.): did not have a significant effect
- elimination pattern of docetaxel concentration-time profile ([1]; plasma): triphasic

- elimination pattern of docetaxel concentration-time profile ([1]; plasma): triphasic
- AUC(0-inf) [1, 4]: 10300 ng·h/mL
- Cmax [1, 4]: 18100 ± 2200 ng/mL
- clearance [1, 4]: 32.2 mL/min/kg
- concentration at 24 hr [1, 4]: 9 ± 0.7 ng/mL
Compound: CC(=O)O[C@@]12CO[C@@H]1C[C@H](O)[C@@]1(C)C(=O)[C@H](O)C3=C(C)[C@@H](OC(=O)[C@H](O)[C@@H](NC(=O)OC(C)(C)C)c4ccccc4)C[C@@](O)([C@@H](OC(=O)c4ccccc4)[C@H]21)C3(C)C [Docetaxel]
- toxicity [2]: severe toxicities

Compound: CC(=O)N1CCN(c2ccc(OCC3COC(Cn4ccnc4)(c4ccc(Cl)cc4Cl)O3)cc2)CC1 (stereo not shown) [ketoconazole, Ketoconazole]
- elimination pattern of docetaxel concentration-time profile ([1]; plasma): biphasic

Compound: CC(C)c1nc(CN(C)C(=O)N[C@H](C(=O)N[C@@H](Cc2ccccc2)C[C@H](O)[C@H](Cc2ccccc2)NC(=O)OCc2cncs2)C(C)C)cs1 [ritonavir, Ritonavir]
- oral bioavailability of docetaxel [3]: 130-160 % of control
